Structures can show the parent of a compound that is named as a salt. Where two headings read alike, the source gives them in different places. Values belong to the compound of their own block, whether it stands above or below them.
Experiments:
[1] = test system: calf eye outflow facility; conditions: perfusion at 15 mm Hg and 22° C.; cited from earlier work
monkey eye outflow = conditions: perfusion at 15 mm Hg and 22° C.; cited from earlier work
intraocular pressure [2] = assay: Topical instillation, intraocular pressure in rabbits; assay type: in vivo, Dutch-belted rabbits
Protocol: (§1) For rabbit experiments Dutch-belted rabbits of either sex weighing 1.5 to 2 kg were used for topical studies. Each animal was randomly assigned one eye for the experimental and the other for its control solution. Intraocular pressure was measured using a Digilab Pneumotonometer. Any animals showing asymmetry of intraocular pressure greater than 2 mm were excluded form the study.
(§2) The protocol was as follows. Baseline intraocular pressure was taken in each eye using 0.5% proparacaine hydrochloride for topical anesthesia. […] In a half hour this was repeated. Two hours later intraocular pressure was measured in each eye. In some animals intraocular pressure was also measured five hours later and all animals had measurement of intraocular pressure the following day.
(§3) Ethacrynic acid powder was dissolved in 3% methylcellulose to yield the desired concentration. […] The solution was refrigerated over night to yield a transparent, viscous fluid. The pH of the solution was determined by mixing one part of the control or experimental solution with five parts of distilled water. […] The 3% methylcellulose solution was refrigerated when not in use.
(§4) Experiments similar to those described above have also been performed using two esters of ethacrynic acid, RCOOCH2 CH2 N(CH2 CH3)2 (hereinafter "ester A") and RCOOCH2 CH2 CH2 N(CH2 CH3)2 (hereinafter "ester B"), where R is [2,3-dichloro-4-(2-methylene-1-oxobutyl)phenoxy]acetate.
(§5) In all these topical experiments 2 drops of the agent were given 5 minutes apart and control eyes were fully sham manipulated. […] However, not all the animals were slit lamped.

eye [3] = assay: Topical instillation, ocular side effects / irritation in rabbits; assay type: in vivo, Dutch-belted rabbits
Protocol: as §1, §2, §3, §4, §5

intraocular pressure [4] = assay: Topical application, intraocular pressure in the monkey; assay type: in vivo
Protocol: as §4
After topical application of 10 mM ester A, a reduction in intraocular pressure in the rabbit was observed. This was most apparent 24 hours after instillation ([…] intraocular pressure changing from 22±3 to 15±2 mm Hg; n=8). In all these topical experiments 2 drops of the agent were given 5 minutes apart and control eyes were fully sham manipulated. […] However, not all the animals were slit lamped.
(§6) In the monkey, a significant pressure reduction 24 hours after application of 10 mM ester A was observed (control eyes changing from 17±3 to 21±2 mm Hg versus experimental eyes changing from 19±1 to 5±3 mm Hg; n=6). […] This was detected by flashlight examination and confirmed by slit lamp examination.

cornea = assay: Topical application, corneal edema in the monkey (flashlight and slit lamp examination); assay type: in vivo
Protocol: as §4, §6

Water solubility = assay type: physicochemical
Solution stability = assay type: physicochemical
Protocol: (§7) Each vial of ethacrynic acid contained ethacrynate sodium powder equivalent to 50 mg of ethacrynic acid. […] The powder was diluted with the above basic medium (Dulbecco's with added glucose) to yield the desired concentration. The solution was mixed at room temperature until dissolved, and the pH was determined (always 7.2) before use; the solution was filtered with a 0.2 micron filter (Nuclepore); this produced a solution which was stable for 24 hours.
Ethacrynic acid powder was dissolved in 3% methylcellulose to yield the desired concentration. The solution was mixed at room temperature for one hour and was stable for 24 hours. A similar osmotically balanced control solution was prepared from methyl cellulose powder dissolved in distilled water using low heat for several hours. The solution was refrigerated over night to yield a transparent, viscous fluid. The pH of the solution was determined by mixing one part of the control or experimental solution with five parts of distilled water. The pH ranged between 6.2 and 6.5 for both the control and experimental solutions. The 3% methylcellulose solution was refrigerated when not in use.

[5] = test system: aqueous humor outflow (trabecular meshwork); assay: Two-step constant pressure perfusion of anterior chamber; aqueous humor outflow facility in cynomolgus monkeys in vivo; parameters: species or system cynomologous monkeys
Text: (§8) Ethacrynic acid (sodium salt) was used to increase aqueous humor outflow in cynomologous monkeys, as described below. Ethacrynic acid can be purchased from Merck, Sharp, and Dome, and is described in U.S. Pat. No. 3,255,241, hereby incorporated by reference. Ethacrynic acid has the chemical formula [2,3-dichloro-4-(2-methylene-1-oxobutyl) phenoxy] acetic acid. Any suitable analog described in U.S. Pat. No. 3,255,241 or its ester or amide derivative can also be used as described herein; for example, the following compounds may be used and are available from Allergan, Inc. (Irvine, Calif.), as indicated by the code number below the structure. [drawing 4]
(§9) Each animal was randomly assigned one eye for the experimental and the other for its control perfusion. The animals were fasted the night before the experiment. They were anesthetized intramuscularly with Methohexital Sodium 15 mg/kg and Pentobarbital Sodium 35 mg/kg. Supplemental anesthesia as required was carried out with Pentobarbital 10 mg/kg/hour. Needles were placed through the cornea into the anterior chamber and a two-step constant pressure perfusion method was performed in order to determine aqueous humor outflow facility. The basic medium for perfusion was Dulbecco's phosphate buffered saline with added 5.5 mM glucose. A 10 microliter bolus of the experimental or control solution (that would produce the desired final concentration in the anterior chamber) was injected through a T shaped connector piece in the infusion line.
as §7
The control solution was composed of 9.5 mg sodium chloride (to osmotically balance the experimental solution), 62.5 mg mannitol and 0.1 milliliter thimerosol dissolved in Dulbecco's phosphate buffered saline with 5.5 mM added glucose to yield the desired concentration.
(§10) During perfusion experiments, a 10 microliter bolus injection was made using a Hamilton syringe. Since the monkey anterior chamber is approximately 200 microliters, 10 microliters of 10 mM ethacrynic acid was infused to achieve a final concentration of 0.5 mM ethacrynic acid.
[…] There were at least three animals and separate experiments carried out for each of the concentrations 0.1 MM, 0.25 mM, and 0.5 mM.

eye [6] = assay: Ocular changes and intraocular pressure after perfusion in monkeys; assay type: in vivo, cynomologous monkeys
Text: as §8, §9, §7, §10
Experiments were carried out using final ethacrynic acid concentrations in the aqueous humor of 0.1 mM to 0.5 mM. There were at least three animals and separate experiments carried out for each of the concentrations 0.1 MM, 0.25 mM, and 0.5 mM.

SMILES: CCN1C(=O)C=CC1=O [NEM, N-ethylmaleimide]
- dosage producing a significant increase in the facility of outflow [1]: ≥ 4.7 mM
- outflow in the monkey eye (monkey eye outflow): increase in outflow

SMILES: C=C(CC)C(=O)c1ccc(OCC(=O)OCCCN(CC)CC)c(Cl)c1Cl [ester B, RCOOCH2 CH2 CH2 N(CH2 CH3)2]
- intraocular pressure, experimental eyes (intraocular pressure [2]; 10 mM ester B, 24 hours, from 23±3, control eyes 24±2 to 24±2, n=5): 15±3 mm Hg
- signs of irritation (eye [3]; 10 mM ester B, at 24 hours): only minimal if any signs of irritation
- slit lamp observation of ocular inflammation (eye [3]; 10 mM ester B, at 24 hours): no slit lamp observations of ocular inflammation

- corneal edema (cornea; 5 mM ester A): corneal edema was likewise apparent
SMILES: C=C(CC)C(=O)c1ccc(OCC(=O)OCCN(CC)CC)c(Cl)c1Cl [ester A, RCOOCH2 CH2 N(CH2 CH3)2]
- intraocular pressure (intraocular pressure [2]; 10 mM ester A, 24 hours after instillation, from 22±3, n=8, printed as control eye): 15±2 mm Hg
- irritation (eye [3]; 5 mM ester A, two rabbits): minimal if any irritation
- anterior chamber inflammation (eye [3]; 10 mM ester A): No anterior chamber inflammation was observed
- clearing of external irritation of the lid (eye [3]; 10 mM ester A): 24 h
- irritation of eyelid, conjunctiva, nictitating membrane (eye [3]; 10 mM ester A): Most of the animals demonstrated some irritation of the eyelid and a few to the conjunctiva and nictitating membrane
- corneal changes (eye [3]; 10 mM ester A, not all animals slit lamped): no corneal changes were observed
- pressure reduction (intraocular pressure [4]; 5 mM ester A): no pressure reduction was documented
- intraocular pressure, experimental eyes (intraocular pressure [4]; 10 mM ester A, 24 hours, from 19±1, control eyes 17±3 to 21±2, n=6): 5±3 mm Hg
- corneal edema (cornea; 10 mM ester A): significant corneal edema was also observed in over half of the monkeys
- resolution of corneal edema (cornea; ester A topical, all animals): corneal edema ultimately resolved in all animals

SMILES: C=C(CC)C(=O)c1ccc(OCC(=O)O)c(Cl)c1Cl [sodium salt of ethacrynic acid]
- solubility (Water solubility): ~40 mM
- stability of solution (Solution stability; Dulbecco's phosphate buffered saline with 5.5 mM glucose, pH 7.2): 24 h

SMILES: C=C(CC)C(=O)c1ccc(OCC(=O)O)c(Cl)c1Cl [ethacrynic acid, [2,3-dichloro-4-(2-methylene-1-oxobutyl)phenoxy] acetic acid]
- response in outflow facility ([5]; 0.25 mM): approximately half the animals perfused responded with a substantial increase in outflow facility
- mean increase in fluid outflow facility ([5]; 0.5 mM final concentration in anterior chamber, control perfused eye no change): 140%
- increase in outflow facility ([5]; 1.0 mM, one animal, 18% increase in control eye): 355%
- effect on outflow facility ([5]; lower dosages (below 0.25 mM)): no effect
- intraocular pressure after perfusion (eye [6]; a few days after the perfusion experiments): symmetrical and normal in both eyes
- dilated pupil (eye [6]; dosages above 0.25 mM, treated eye): some of the animals developed a dilated pupil
- chronic corneal edema, opacities or cataract formation (eye [6]; perfusion): no chronic corneal edema or opacities or cataract formation
- corneal or crystalline lens changes (eye [6]; perfusion): no apparent corneal or crystalline lens changes
- intraocular pressure, treated eye (intraocular pressure [2]; 5 mM in 3% methylcellulose, 2 hours, from 22.4 baseline, control eye 21.5 to 23.1, n=8, p less than 0.01): 19.6 mm Hg
- intraocular pressure, treated eye (intraocular pressure [2]; 5 mM in 3% methylcellulose, next day, control eye 22.7): 22.4 mm
- intraocular pressure, treated eye (intraocular pressure [2]; 10 mM and 3% methylcellulose, 24 hours, from 23.0 baseline, control eye 22.9 to 24.2, n=14, p less than 0.001): 20.0 mm Hg
- conjunctival side effect (eye [3]; 5 mM topical): slight conjunctival infection
- other side effects (eye [3]; 5 mM topical): no other side effects noted
- conjunctival side effect and irritation (eye [3]; 10 mM topical): moderate conjunctival infection and signs of irritation
- resolution of corneal toxicity and inflammation (eye [3]; higher concentrations (above 10 mM)): resolved without apparent sequelae
- corneal toxicity and anterior chamber inflammation (eye [3]; higher concentrations (above 10 mM), for several days): signs of corneal toxicity (corneal edema) and anterior chamber inflammation were apparent for several days
- stability of solution (Solution stability): 24 h
